Reference: ChEMBL document CHEMBL1150413, “A series of potent and selective, triazolylphenyl-based histone deacetylases inhibitors with activity against pancreatic cancer cells and Plasmodium falciparum” (J Med Chem, 2008)

What was measured:
Histone deacetylase 2 = Histone deacetylase 2 (Homo sapiens, UniProt Q92769)
Histone deacetylase 3 = Histone deacetylase 3 (Homo sapiens, UniProt O15379)
[1] = Selectivity for HDAC10 over HDAC1
BXPC-3 = assay: Cytotoxicity against human BxPC3 cells after 72 hrs by MTT assay; assay type: functional, cell-based; conditions: BXPC-3, 72 h
[2] = Cytotoxicity against human Hup T3 cells after 72 hrs by MTT assay; assay type: functional, cell-based; conditions: HuP-T3, 72 h
MIA PaCa-2 = assay: Cytotoxicity against human Mia Paca2 cells after 72 hrs by MTT assay; assay type: functional, cell-based; conditions: MIA PaCa-2, 72 h
[3] = Cytotoxicity against human Panc 04.03 cells after 72 hrs by MTT assay; assay type: functional, cell-based; conditions: Panc 04.03, 72 h
[4] = Cytotoxicity against human SU 86.86 cells after 72 hrs by MTT assay; assay type: functional, cell-based; conditions: SU.86.86, 72 h
Plasmodium falciparum [5] = assay: Antimalarial activity against Plasmodium falciparum D6 by hypoxanthine uptake; assay type: functional, organism-based
Plasmodium falciparum [6] = assay: Antimalarial activity against Plasmodium falciparum W2 by hypoxanthine uptake; assay type: functional, organism-based
Plasmodium falciparum [7] = assay: Antimalarial activity against Plasmodium falciparum TM90C2A by hypoxanthine uptake; assay type: functional, organism-based
Histone deacetylase 1 = Histone deacetylase 1 (Homo sapiens, UniProt Q13547)
Histone deacetylase 8 = target: T1, Histone deacetylase 8 (Homo sapiens, UniProt Q9BY41)
T1 sequence (Q9BY41 whole entry): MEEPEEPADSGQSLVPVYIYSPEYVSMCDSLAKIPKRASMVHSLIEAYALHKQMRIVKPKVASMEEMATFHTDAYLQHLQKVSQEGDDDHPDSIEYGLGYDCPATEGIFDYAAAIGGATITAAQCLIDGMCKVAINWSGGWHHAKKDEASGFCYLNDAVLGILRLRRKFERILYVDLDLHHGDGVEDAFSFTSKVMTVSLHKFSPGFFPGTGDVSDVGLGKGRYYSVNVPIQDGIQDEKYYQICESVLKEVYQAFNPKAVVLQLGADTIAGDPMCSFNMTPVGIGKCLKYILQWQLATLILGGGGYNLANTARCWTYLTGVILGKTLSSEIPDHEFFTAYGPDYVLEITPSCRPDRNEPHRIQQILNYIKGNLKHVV

[8] = target: T2, Polyamine deacetylase HDAC10 (Homo sapiens, UniProt Q969S8)
T2 sequence (Q969S8 whole entry): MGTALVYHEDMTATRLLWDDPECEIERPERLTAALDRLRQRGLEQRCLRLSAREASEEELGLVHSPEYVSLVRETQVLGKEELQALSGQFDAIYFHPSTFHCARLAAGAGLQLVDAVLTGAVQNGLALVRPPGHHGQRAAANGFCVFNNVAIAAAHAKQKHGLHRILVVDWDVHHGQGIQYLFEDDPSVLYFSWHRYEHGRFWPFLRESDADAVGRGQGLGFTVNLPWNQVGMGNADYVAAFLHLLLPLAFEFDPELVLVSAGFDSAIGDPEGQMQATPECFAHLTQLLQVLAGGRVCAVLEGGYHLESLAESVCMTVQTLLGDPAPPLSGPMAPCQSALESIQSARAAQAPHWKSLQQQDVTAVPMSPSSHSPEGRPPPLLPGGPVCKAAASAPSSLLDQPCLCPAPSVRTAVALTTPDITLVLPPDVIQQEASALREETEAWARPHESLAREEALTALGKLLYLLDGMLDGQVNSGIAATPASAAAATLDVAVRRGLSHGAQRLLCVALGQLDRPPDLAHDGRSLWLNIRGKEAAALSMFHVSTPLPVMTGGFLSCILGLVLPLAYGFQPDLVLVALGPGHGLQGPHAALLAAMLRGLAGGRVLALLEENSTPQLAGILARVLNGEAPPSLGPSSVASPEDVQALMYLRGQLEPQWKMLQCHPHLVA

[9] = target: T3, Protein deacetylase HDAC6 (Homo sapiens, UniProt Q9UBN7)
T3 sequence (Q9UBN7 whole entry): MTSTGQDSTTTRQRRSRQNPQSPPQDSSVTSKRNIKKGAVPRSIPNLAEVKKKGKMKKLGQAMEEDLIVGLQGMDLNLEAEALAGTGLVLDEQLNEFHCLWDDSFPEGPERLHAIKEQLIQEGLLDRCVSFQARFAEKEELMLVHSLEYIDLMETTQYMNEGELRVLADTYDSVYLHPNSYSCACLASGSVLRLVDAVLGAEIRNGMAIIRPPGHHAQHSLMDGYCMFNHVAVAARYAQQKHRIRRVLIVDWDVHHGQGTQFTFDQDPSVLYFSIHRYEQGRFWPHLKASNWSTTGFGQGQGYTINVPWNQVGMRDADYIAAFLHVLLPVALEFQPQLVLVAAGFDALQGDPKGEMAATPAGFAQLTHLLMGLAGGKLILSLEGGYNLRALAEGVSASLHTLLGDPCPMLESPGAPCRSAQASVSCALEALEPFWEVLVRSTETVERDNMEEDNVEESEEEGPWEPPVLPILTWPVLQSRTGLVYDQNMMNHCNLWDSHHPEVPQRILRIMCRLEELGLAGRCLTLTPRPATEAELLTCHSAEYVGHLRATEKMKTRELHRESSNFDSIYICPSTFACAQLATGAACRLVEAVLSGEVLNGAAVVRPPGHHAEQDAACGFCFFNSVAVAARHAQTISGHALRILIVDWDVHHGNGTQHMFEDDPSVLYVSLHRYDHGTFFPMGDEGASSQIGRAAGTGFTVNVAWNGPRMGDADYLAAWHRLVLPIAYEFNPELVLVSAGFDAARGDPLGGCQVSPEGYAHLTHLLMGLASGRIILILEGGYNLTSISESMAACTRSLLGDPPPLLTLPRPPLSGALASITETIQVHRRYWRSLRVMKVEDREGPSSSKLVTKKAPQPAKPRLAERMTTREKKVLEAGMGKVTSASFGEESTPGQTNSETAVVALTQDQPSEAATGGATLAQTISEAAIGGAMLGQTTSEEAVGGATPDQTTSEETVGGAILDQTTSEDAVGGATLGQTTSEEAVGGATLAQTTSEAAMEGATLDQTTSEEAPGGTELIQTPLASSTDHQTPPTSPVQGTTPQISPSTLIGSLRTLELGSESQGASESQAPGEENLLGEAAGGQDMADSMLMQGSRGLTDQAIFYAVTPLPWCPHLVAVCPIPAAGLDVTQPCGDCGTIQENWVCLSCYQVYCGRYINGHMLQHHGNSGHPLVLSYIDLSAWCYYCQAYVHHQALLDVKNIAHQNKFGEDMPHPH

Plasmodium falciparum [10] = assay: microbe, parasite or virus in culture; conditions: TM91C235
Description: Antimalarial activity against Plasmodium falciparum TM91C235 by hypoxanthine uptake

Histone deacetylase 3, sequence (O15379 whole entry): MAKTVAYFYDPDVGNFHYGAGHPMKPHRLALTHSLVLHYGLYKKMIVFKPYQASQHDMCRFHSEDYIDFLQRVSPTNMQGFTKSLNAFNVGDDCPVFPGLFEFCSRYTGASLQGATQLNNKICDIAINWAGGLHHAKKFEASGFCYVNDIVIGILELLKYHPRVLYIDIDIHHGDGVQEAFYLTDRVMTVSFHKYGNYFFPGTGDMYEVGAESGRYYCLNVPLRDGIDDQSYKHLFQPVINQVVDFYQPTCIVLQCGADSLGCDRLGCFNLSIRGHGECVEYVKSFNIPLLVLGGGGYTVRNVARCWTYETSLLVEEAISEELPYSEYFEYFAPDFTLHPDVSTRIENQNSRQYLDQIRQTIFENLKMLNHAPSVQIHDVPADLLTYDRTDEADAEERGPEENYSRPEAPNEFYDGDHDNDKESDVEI
Histone deacetylase 2, sequence (Q92769 whole entry): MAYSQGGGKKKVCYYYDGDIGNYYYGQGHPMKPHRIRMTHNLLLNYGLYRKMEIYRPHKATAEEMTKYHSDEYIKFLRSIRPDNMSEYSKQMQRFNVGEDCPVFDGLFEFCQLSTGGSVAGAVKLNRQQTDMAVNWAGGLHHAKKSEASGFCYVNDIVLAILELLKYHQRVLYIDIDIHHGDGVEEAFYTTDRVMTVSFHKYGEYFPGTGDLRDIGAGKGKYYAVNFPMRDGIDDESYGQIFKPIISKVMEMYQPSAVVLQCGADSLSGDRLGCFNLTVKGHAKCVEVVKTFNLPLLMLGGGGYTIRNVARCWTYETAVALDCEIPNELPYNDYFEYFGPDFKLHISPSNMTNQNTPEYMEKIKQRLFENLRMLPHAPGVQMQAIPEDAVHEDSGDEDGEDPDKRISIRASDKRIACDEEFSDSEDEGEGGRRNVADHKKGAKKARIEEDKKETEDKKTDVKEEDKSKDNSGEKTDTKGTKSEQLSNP
Histone deacetylase 1, sequence (Q13547 whole entry): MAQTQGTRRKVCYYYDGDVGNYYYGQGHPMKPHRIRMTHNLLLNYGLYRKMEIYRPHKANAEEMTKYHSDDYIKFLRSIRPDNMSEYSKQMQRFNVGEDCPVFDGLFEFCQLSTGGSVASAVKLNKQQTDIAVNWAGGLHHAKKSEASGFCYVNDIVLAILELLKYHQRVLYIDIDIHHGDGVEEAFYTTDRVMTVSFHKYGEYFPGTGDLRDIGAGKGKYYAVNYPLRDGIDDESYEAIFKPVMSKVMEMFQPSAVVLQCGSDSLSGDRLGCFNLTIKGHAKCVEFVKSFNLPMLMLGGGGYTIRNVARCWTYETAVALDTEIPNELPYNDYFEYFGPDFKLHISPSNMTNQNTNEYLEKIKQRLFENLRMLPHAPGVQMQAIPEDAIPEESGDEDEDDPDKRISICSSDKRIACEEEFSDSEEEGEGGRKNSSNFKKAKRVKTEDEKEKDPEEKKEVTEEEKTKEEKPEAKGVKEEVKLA

Row | SMILES | IC50 (Histone deacetylase 2) [µM] | IC50 (Histone deacetylase 3) [µM] | Ratio IC50 [1] | IC50 (BXPC-3) [µM] | IC50 [2] [µM] | IC50 (MIA PaCa-2) [µM] | IC50 [3] [µM] | IC50 [4] [µM] | IC50 (Plasmodium falciparum [5]) [µM] | IC50 (Plasmodium falciparum [6]) [µM] | IC50 (Plasmodium falciparum [7]) [µM] | IC50 (Histone deacetylase 1) [µM] | IC50 (Histone deacetylase 8) [µM] | IC50 [8] [µM] | IC50 [9] [µM] | IC50 (Plasmodium falciparum [10]) [µM]
1 | O=C(CCCCCCC(=O)Nc1ccc(-c2cn(CC(O)c3cccc(Br)c3)nn2)cc1)NO (stereo unspecified) | 0.143 | 0.0253 | 0.8 | 18 | 12 | 0.6 | 10 | 12 | 0.08 | 0.39 | 0.19 | 0.0692 | 3.13 | 0.0865 | 0.0044 | 0.11
2 | O=C(CCCCCCC(=O)Nc1cccc(-c2cnnn2CC(O)c2cccc(Br)c2)c1)NO (stereo unspecified) | 0.116 | 0.0042 | 1.5 | 43 | 42 | 11 | 25 | 23 | 0.18 | 0.38 | 0.12 | 0.0234 | 0.406 | 0.0158 | 0.0028 | 0.39
3 | O=C(CCCCCCC(=O)Nc1cccc(-c2cn(CC(O)c3cccc(Br)c3)nn2)c1)NO (stereo unspecified) | 0.0644 | 0.0027 | 1.1 | 11 | 11 | 0.8 | 14 | 12 | 0.11 | 0.56 | 0.11 | 0.0149 | 0.44 | 0.013 | 0.0019 | 0.26
4 | O=C(CCCCCCC(=O)Nc1ccc(-c2cnnn2Cc2ccccc2)cc1)NO | 0.124 | 0.0097 | 1 | 11 | 5 | 2 | 2 | 9 | 0.4 | > 1.2 | 0.3 | 0.0683 | 0.79 | 0.0701 | 0.0031 | 0.52
5 | O[C@@H](c1cc(C(F)(F)F)nc2c(C(F)(F)F)cccc12)[C@H]1CCCCN1 [MEFLOQUINE] | – | – | – | – | – | – | – | – | 0.011 | – | – | – | – | – | – | –
6 | O=C(CCCCCCC(=O)Nc1ccc(-c2cnnn2Cc2ccc(F)cc2)cc1)NO | 0.0574 | 0.0164 | 0.8 | 11 | 4 | 8 | 2 | 10 | 0.24 | 0.46 | 0.12 | 0.0524 | 2.01 | 0.0647 | 0.0073 | 0.29
7 | O=C(CCCCCCC(=O)Nc1ccc(-c2cn(Cc3ccccc3)nn2)cc1)NO | 0.679 | – | 0.6 | 9 | 5 | < 1 | 2 | 10 | 0.21 | 0.53 | 0.16 | 0.113 | 3.97 | 0.188 | 0.0048 | 0.3
